Source: patent US20160251342A1, “ALDEHYDE DERIVATIVE OF SUBSTITUTED OXAZOLIDINONES” (WANBURY LTD., priority 2012, published 2016)
Each block holds one compound with its values, some of them ahead of it.

Key:
thrombus formation [1] = assay: Arteriovenous shunt model (rat); type: in vivo, rats (strain: Wistar); details: for ED50: Rattus norvegicus, arteriovenous shunt, read-out: ED-50 to inhibit the thrombus formation
From the text: Fasting male rats (strain: Wistar) having a weight of 280-320 g were anaesthetized using a isoflurane/oxygen. Thrombus formation was initiated in an arteriovenous shunt in accordance with the method described by Christopher N. Berry et al., Br. J. Pharmacol. (1994), 113, 1209-1214. To this end, the left jugular vein and the right carotid artery were exposed. The two vessels were connected by an extracorporeal shunt using a 10 cm long Poly Vinyl Chloride tube (.P.V.C.) 9 internal diameter i.d. 0.5 mm), in middle of PVC tubing a 5 cm Scalp vein tube (i.d. 1.5 mm) will be attached which contained a 3 cm long roughened surface nylon thread which will be arranged to form a loop to form a thrombogenic surface. The extracorporeal circulation was maintained for 15 minutes. The shunt was then removed and the nylon thread with the thrombus was weighed immediately. The weight of the nylon thread on its own had been determined before the experiment was started. Before the extracorporeal circulation was set up, The test item [compound formula (B) (Wanxaban)/reference item (Rivaroxaban)/vehicle will be administered to the animals as per routes preferred. Animals were grouped by body weight stratification and randomization (Represented by G1-[…]). The grouping was done one day prior to the experiment initiation.

[2] = In vitro stability in mouse plasma (LC-MS); type: in vitro ADME; details: for % Parent remaining (Mouse): rivaroxaban itself incubated
Experimental: The final concentration of the test compound in the assay is 5 micromolar. […] C. The 100 microlitres of aliquot at time point was removed and diluted with ice cold acetonitrile containing IS (200 µL) to stop the reactions. Samples are centrifuged at 10,000 RPM for 5 minutes to precipitate proteins. Supernatants are transferred to micro centrifuge tubes and stored at −20° C. for analysis of LC/MS/MS. The percent parent remaining of the test substance is calculated as ratio of peak area at each time point to peak area ratio at zero min, multiplied by 100.
API 4000, ESI Agilent 1100 column: Gemini Nx 100 mm×4.6 mm 5.μ; column temperature: 30° C.; eluent A: 0.1% formic acid in water, eluent B: acetonitrile; gradient: 0-2.5 min 95% A, 5% B; 2.5-2.6 min 5% A, 95% B; 2.6-4.2 min 95% A, 5% B; flow rate: 0.8 ml/min; ESI. Q1:464.098, Q3:144.255

[3] = In vitro liver microsomal stability assay, rat; type: in vitro ADME; details: rat microsomes; for % Parent remaining (rat): rivaroxaban itself incubated
Experimental: (§1) Liver microsomal stability assays are conducted at 1 mg per mL liver microsome protein with an NADPH in phosphate buffer (100 mM, pH 7.4). Test compounds (compound of formula B of the invention) are prepared as solutions in 20% methanol-water and added to the assay mixture (final assay concentration 1 μM) and incubated at 37° C. Aliquots (100 .μ.L) are taken out at times 0, 15, and 30 minutes, and diluted with ice cold acetonitrile containing IS (200 µL) to stop the reactions. Samples are centrifuged at 10,000 RPM for 5 minutes to precipitate proteins. Supernatants are transferred to micro centrifuge tubes and stored at −20° C. for analysis of LC/MS/MS. The percent parent remaining of the test substance is calculated as Ratio of peak area at each time point to peak area ratio at zero min, multiplied by 100. The compound formula (B) is converted to Rivaroxaban in microsomal assay.

[4] = In vitro liver microsomal stability assay, human; type: in vitro ADME; details: human microsomes; for % Parent remaning (Human): rivaroxaban itself incubated
Experimental: as §1

thrombus formation [5] = assay: Arterial thrombosis model (rat); type: in vivo, rats (strain: Wistar); details: for ED50: Rattus norvegicus, arterial thrombosis, read-out: ED-50 to inhibit the thrombus formation
Experimental: Male fasting rats (strain: Wistar) having a weight 280-320 g were anaesthetized using isoflurane/oxygen. The left carotid artery was exposed (about 2 cm). The formation of an arterial thrombus was induced by mechanical injury to the blood vessel in accordance with the method described by K. Meng et al., Naunyn-Schmiedeberg's Arch. Pharmacol. (1977), 301, 115-119. To this end, the exposed carotid artery was clamped from the blood flow, cooled to -20° C. in a metal trough for 2 minutes and, to standardize the size of the thrombi, simultaneously compressed using a weight of 200 g. […] The proximal clamp was removed, and the wound was closed and re-opened after 2 hours to remove the injured section of the vessel. The section of the vessel was opened longitudinally and the thrombus was removed from the injured section of the vessel. The moist weight of the thrombi was determined immediately. […] Animals were grouped by body weight stratification and randomization (Represented by G1-[…]). The grouping was done one day prior to the experiment initiation.

thrombus formation [6] = assay: Venous thrombosis model (rat); type: in vivo, rats (strain: Wistar); details: for ED50: Rattus norvegicus, venous thrombosis, per oral, read-out: ED-50 to inhibit the thrombus formation; for Mean thrombus weight (mg) (±SEM): per oral 120 minutes before induction, vehicle 4.36 ± 0.58
Experimental: Male fasting rats (strain: Wistar) having a weight 280-320 g were anaesthetized using isoflurane/oxygen. The left jugular vein was exposed (about 2 cm). The formation of a venous thrombus was induced by mechanical injury to the blood vessel in accordance with the method described by K. Meng, et al., Naunyn-Schmiedeberg's Arch. Pharmacol. (1977), 301, 115-119. To this end, the jugular vein was clamped from the blood flow, cooled to -12° C. in a metal trough for 2 minutes and, to standardize the size of the thrombi, simultaneously compressed using a weight of 200 g. The blood flow was re-opened and the wound was closed. After 4 hours, the wound was re-opened to remove the thrombi from the injured sections of the vessel. The moist weight of the thrombi was determined immediately. […] Animals were grouped by body weight stratification and randomization (Represented by G12-[…]). The grouping was done one day prior to the experiment initiation.

[7] = In vitro liver microsomal stability assay, mouse; type: in vitro ADME; details: mouse microsomes
Experimental: as §1

[8] = intravenous, Dose 0.5, vehicle 27.26 ± 1.23
[9] = intravenous, Dose 1, vehicle 27.26 ± 1.23
[10] = intravenous, Dose 2, vehicle 27.26 ± 1.23
[11] = intravenous, Dose 3, vehicle 27.26 ± 1.23
[12] = intravenous, Dose 4, vehicle 27.26 ± 1.23
[13] = per oral, Dose 2.5, vehicle 26.95 ± 1.23
[14] = per oral, Dose 5, vehicle 26.95 ± 1.23
[15] = per oral, Dose 10, vehicle 26.95 ± 1.23
[16] = per oral, Dose 15, vehicle 26.95 ± 1.23
[17] = per oral, Dose 20, vehicle 26.95 ± 1.23
[18] = intravenous 5 minutes before induction, Dose 0.5, vehicle 2.08 ± 0.47
[19] = intravenous 5 minutes before induction, Dose 1, vehicle 2.08 ± 0.47
[20] = intravenous 5 minutes before induction, Dose 2, vehicle 2.08 ± 0.47
[21] = intravenous 5 minutes before induction, Dose 3, vehicle 2.08 ± 0.47
[22] = intravenous 5 minutes before induction, Dose 4, vehicle 2.08 ± 0.47
[23] = per oral 120 minutes before induction, Dose 2.5, vehicle 1.70 ± 0.39
[24] = per oral 120 minutes before induction, Dose 5.0, vehicle 1.70 ± 0.39
[25] = per oral 120 minutes before induction, Dose 10, vehicle 1.70 ± 0.39
[26] = per oral 120 minutes before induction, Dose 15, vehicle 1.70 ± 0.39
[27] = per oral 120 minutes before induction, Dose 20, vehicle 1.70 ± 0.39

Conversion summary: unchanged, stable in plasma ([2]; rivaroxaban itself): unchanged,
% Parent remaining (Mouse) ([2]; 0 min): 100%
% Parent remaining (Mouse) ([2]; 30 min): 100%
% Parent remaining (Mouse) ([2]; 60 min): 100%
Observation: metabolism ([3]; rivaroxaban itself): High
% Parent remaining (rat) ([3]; 0 min): 100%
% Parent remaining (rat) ([3]; 15 min): 0.01%
% Parent remaining (rat) ([3]; 30 min): 0.02%
% Parent remaning (Human) ([4]; 0 min): 100%
% Parent remaning (Human) ([4]; 15 min): 0.01%
% Parent remaning (Human) ([4]; 30 min): 0.01%
Observation: metabolism ([7]; rivaroxaban itself): High
Compound: O=C(NC[C@H]1CN(c2ccc(N3CCOCC3=O)cc2)C(=O)O1)c1ccc(Cl)s1 [Rivaroxaban, 5-chloro-N-({(5S)-2-oxo-3-[4-(3-oxomorpholin-4-yl)phenyl]-1,3-oxazolidin-5-yl}methyl)thiophene-2-carboxamide, reference compound]
ED50 (thrombus formation [1]; intravenous): 1.7 mg/kg
ED50 (thrombus formation [1]; per oral): 26.2 mg/kg
Mean thrombus weight (mg) (±SEM) (thrombus formation [1]; [8]): 13.95 ± 1.49 mg
Mean thrombus weight (mg) (±SEM) (thrombus formation [1]; [9]): 10.84 ± 1.16 mg
Mean thrombus weight (mg) (±SEM) (thrombus formation [1]; [10]): 10.83 ± 1.11 mg
Mean thrombus weight (mg) (±SEM) (thrombus formation [1]; [11]): 6.92 ± 0.57 mg
Mean thrombus weight (mg) (±SEM) (thrombus formation [1]; [12]): 7.56 ± 0.59 mg
Mean thrombus weight (mg) (±SEM) (thrombus formation [1]; [13]): 19.2 ± 0.2 mg
Mean thrombus weight (mg) (±SEM) (thrombus formation [1]; [14]): 17.26 ± 0.75 mg
Mean thrombus weight (mg) (±SEM) (thrombus formation [1]; [15]): 15.41 ± 1.25 mg
Mean thrombus weight (mg) (±SEM) (thrombus formation [1]; [16]): 16.9 ± 0.49 mg
Mean thrombus weight (mg) (±SEM) (thrombus formation [1]; [17]): 9.7 ± 1.34 mg
ED50 (thrombus formation [5]; intravenous): 2.5 mg/kg
ED50 (thrombus formation [5]; per oral): 24.2 mg/kg
Mean thrombus weight (mg) (±SEM) (thrombus formation [5]; [18]): 1.10 ± 0.32 mg
Mean thrombus weight (mg) (±SEM) (thrombus formation [5]; [19]): 0.62 ± 0.08 mg
Mean thrombus weight (mg) (±SEM) (thrombus formation [5]; [20]): 0.70 ± 0.11 mg
Mean thrombus weight (mg) (±SEM) (thrombus formation [5]; [21]): 0.41 ± 0.05 mg
Mean thrombus weight (mg) (±SEM) (thrombus formation [5]; [22]): 0.34 ± 0.08 mg
Mean thrombus weight (mg) (±SEM) (thrombus formation [5]; [23]): 1.71 ± 0.45 mg
Mean thrombus weight (mg) (±SEM) (thrombus formation [5]; [24]): 1.78 ± 0.66 mg
Mean thrombus weight (mg) (±SEM) (thrombus formation [5]; [25]): 0.84 ± 0.23 mg
Mean thrombus weight (mg) (±SEM) (thrombus formation [5]; [26]): 0.78 ± 0.14 mg
Mean thrombus weight (mg) (±SEM) (thrombus formation [5]; [27]): 0.65 ± 0.10 mg
ED50 (thrombus formation [6]): 12.3 mg/kg
Mean thrombus weight (mg) (±SEM) (thrombus formation [6]; Dose 2.5): 2.93 ± 0.50 mg
Mean thrombus weight (mg) (±SEM) (thrombus formation [6]; Dose 5.0): 2.06 ± 0.73 mg
Mean thrombus weight (mg) (±SEM) (thrombus formation [6]; Dose 10): 2.06 ± 0.53 mg
Mean thrombus weight (mg) (±SEM) (thrombus formation [6]; Dose 15): 1.43 ± 0.46 mg
Mean thrombus weight (mg) (±SEM) (thrombus formation [6]; Dose 20): 1.66 ± 0.74 mg

Amount of test product detected (conversion to rivaroxaban from zero min) [2]: min. Neglible
Amount of test product detected (metabolised to rivaroxaban from zero min) [3]: min. Neglible
Amount of test product detected (metabolised to rivaroxaban from zero min) [4]: Neglible
Amount of test product detected (metabolised to rivaroxaban from zero min) [7]: min. Neglible
Compound: O=CN(C[C@H]1CN(c2ccc(N3CCOCC3=O)cc2)C(=O)O1)C(=O)c1ccc(Cl)s1 [compound formula (B), 5-chloro-N-formyl-N-({(5S)-2-oxo-3-[4-(3-oxomorpholin-4-yl)phenyl]-1,3-oxazolidin-5-yl}methyl)thiophene-2-carboxamide]
ED50 (thrombus formation [1]; intravenous): 1 mg/kg
ED50 (thrombus formation [1]; per oral): 22.8 mg/kg
Mean thrombus weight (mg) (±SEM) (thrombus formation [1]; [8]): 18.7 ± 1.22 mg
Mean thrombus weight (mg) (±SEM) (thrombus formation [1]; [9]): 13.99 ± 2 mg
Mean thrombus weight (mg) (±SEM) (thrombus formation [1]; [10]): 8.45 ± 0.75 mg
Mean thrombus weight (mg) (±SEM) (thrombus formation [1]; [11]): 5.83 ± 0.31 mg
Mean thrombus weight (mg) (±SEM) (thrombus formation [1]; [12]): 4.81 ± 0.31 mg
Mean thrombus weight (mg) (±SEM) (thrombus formation [1]; [13]): 3.81 ± 1.55 mg
Mean thrombus weight (mg) (±SEM) (thrombus formation [1]; [14]): 1.60 ± 0.10 mg
Mean thrombus weight (mg) (±SEM) (thrombus formation [1]; [15]): 0.66 ± 0.09 mg
Mean thrombus weight (mg) (±SEM) (thrombus formation [1]; [16]): 0.53 ± 0.18 mg
Mean thrombus weight (mg) (±SEM) (thrombus formation [1]; [17]): 0.62 ± 0.16 mg
ED50 (thrombus formation [5]; intravenous): 0.5 mg/kg
ED50 (thrombus formation [5]; per oral): 4 mg/kg
Mean thrombus weight (mg) (±SEM) (thrombus formation [5]; [18]): 1.32 ± 0.17 mg
Mean thrombus weight (mg) (±SEM) (thrombus formation [5]; [19]): 0.60 ± 0.09 mg
Mean thrombus weight (mg) (±SEM) (thrombus formation [5]; [20]): 0.61 ± 0.09 mg
Mean thrombus weight (mg) (±SEM) (thrombus formation [5]; [21]): 0.47 ± 0.05 mg
Mean thrombus weight (mg) (±SEM) (thrombus formation [5]; [22]): 0.36 ± 0.03 mg
Mean thrombus weight (mg) (±SEM) (thrombus formation [5]; [23]): 1.15 ± 0.13 mg
Mean thrombus weight (mg) (±SEM) (thrombus formation [5]; [24]): 0.71 ± 0.04 mg
Mean thrombus weight (mg) (±SEM) (thrombus formation [5]; [25]): 0.78 ± 0.14 mg
Mean thrombus weight (mg) (±SEM) (thrombus formation [5]; [26]): 0.58 ± 0.11 mg
Mean thrombus weight (mg) (±SEM) (thrombus formation [5]; [27]): 0.44 ± 0.04 mg
ED50 (thrombus formation [6]): 1.9 mg/kg
Mean thrombus weight (mg) (±SEM) (thrombus formation [6]; Dose 2.5): 3.81 ± 1.55 mg
Mean thrombus weight (mg) (±SEM) (thrombus formation [6]; Dose 5.0): 1.60 ± 0.10 mg
Mean thrombus weight (mg) (±SEM) (thrombus formation [6]; Dose 10): 0.66 ± 0.09 mg
Mean thrombus weight (mg) (±SEM) (thrombus formation [6]; Dose 15): 0.53 ± 0.18 mg
Mean thrombus weight (mg) (±SEM) (thrombus formation [6]; Dose 20): 0.62 ± 0.16 mg
